The nature of data set [1]: Acute toxicity in male Swiss albino mouse assessed as mortality treated po single dose via gavage measured after 48 hrs by up-and-down method. It counts as organism-based. Conditions: in vivo.
The target of the next data set is Cholinesterase (Equus caballus, UniProt P81908). In words: Inhibition of equine serum BuChE using butyrylthiocholine iodide as substrate pre-incubated for 10 mins followed by substrate addition and measured after 15 mins by DTNB reagent based Ellman's method.
The target in data set [2] is T1, Amine oxidase [flavin-containing] B (Homo sapiens, UniProt P27338).
T1 sequence (P27338 whole entry): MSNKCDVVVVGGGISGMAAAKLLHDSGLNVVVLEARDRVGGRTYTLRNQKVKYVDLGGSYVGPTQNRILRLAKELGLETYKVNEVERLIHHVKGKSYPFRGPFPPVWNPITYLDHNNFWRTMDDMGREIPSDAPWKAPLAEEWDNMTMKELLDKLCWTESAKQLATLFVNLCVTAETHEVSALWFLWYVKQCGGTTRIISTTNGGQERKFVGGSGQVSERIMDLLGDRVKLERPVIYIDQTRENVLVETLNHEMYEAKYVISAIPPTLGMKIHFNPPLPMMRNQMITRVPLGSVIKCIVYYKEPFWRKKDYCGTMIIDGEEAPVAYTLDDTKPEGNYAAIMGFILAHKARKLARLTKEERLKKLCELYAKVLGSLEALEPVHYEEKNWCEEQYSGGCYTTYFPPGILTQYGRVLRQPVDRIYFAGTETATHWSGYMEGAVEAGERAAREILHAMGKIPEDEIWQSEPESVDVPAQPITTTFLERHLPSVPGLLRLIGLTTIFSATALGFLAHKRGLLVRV
The experiment in a line: Inhibition of human MAO-B using tyramine/benzylamine as substrate measured after 30 mins by fluorometric assay.

In the next data set the target is Beta-secretase 1 (Homo sapiens, UniProt P56817). The experiment in a line: Inhibition of BACE-1 (unknown origin) 667-676- (2, 4-dinitrophenyl) Lys-Arg-Arg amide trifluoroacetate as substrate preincubated for 15 mins followed by substrate addition and measured after 2 hrs by fluorescence spectrometric analysis. As to conditions: read-out: IC50.
Data set [3] has as its target T2, Polyunsaturated fatty acid 5-lipoxygenase (Homo sapiens, UniProt P09917).
T2 sequence (P09917 whole entry): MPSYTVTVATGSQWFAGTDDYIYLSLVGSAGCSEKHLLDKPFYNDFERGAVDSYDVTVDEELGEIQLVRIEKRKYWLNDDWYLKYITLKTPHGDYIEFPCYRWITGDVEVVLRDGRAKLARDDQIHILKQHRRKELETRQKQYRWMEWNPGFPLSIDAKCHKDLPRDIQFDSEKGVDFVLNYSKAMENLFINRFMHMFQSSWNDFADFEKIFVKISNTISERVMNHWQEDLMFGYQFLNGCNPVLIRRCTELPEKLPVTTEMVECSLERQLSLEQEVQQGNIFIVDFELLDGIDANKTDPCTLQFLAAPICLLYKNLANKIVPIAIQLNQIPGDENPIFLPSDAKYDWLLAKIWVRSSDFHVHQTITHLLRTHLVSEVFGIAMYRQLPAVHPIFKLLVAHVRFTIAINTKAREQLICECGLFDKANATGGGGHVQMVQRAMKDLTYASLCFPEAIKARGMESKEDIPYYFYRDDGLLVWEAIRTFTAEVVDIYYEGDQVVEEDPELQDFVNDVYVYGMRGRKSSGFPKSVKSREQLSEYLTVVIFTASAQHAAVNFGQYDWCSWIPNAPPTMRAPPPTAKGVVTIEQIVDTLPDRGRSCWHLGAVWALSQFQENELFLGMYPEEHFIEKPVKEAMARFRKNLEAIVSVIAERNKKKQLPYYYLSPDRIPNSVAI
In words: Inhibition of 5-LOX (unknown origin) using linoleic acid as substrate incubated for 5 mins followed by substrate addition.

Data set [4] has as its target Acetylcholinesterase (Electrophorus electricus) (UniProt O42275). The experiment in a line: Mixed-type inhibition of electric eel AChE using acetylthiocholine iodide as substrate assessed as decrease in Vmax […] at 0.036 to 0.144 uM preincubated for 15 mins by Lineweaver-burk plot analysis. Conditions: dose 0.036-0.144 µM.
The nature of data set [5]: Neurotoxicity against human SH-SY5Y cells assessed as reduction in cell viability at 100 uM incubated for 24 hrs by MTT assay relative to control. Type of data set: toxicity, cell-based.
Data set [6] is described as follows: Neurotoxicity against human SH-SY5Y cells assessed as reduction in cell viability upto 50 uM incubated for 24 hrs by MTT assay. It counts as toxicity, cell-based.
Data set [7] in a line: Acute toxicity in male Swiss albino mouse assessed as signs of pain at 1500 mg/kg BW, po administered as single dose via gavage measured after 48 hrs by up-and-down method. Type of data set: organism-based. Conditions: in vivo.
Data set [8] in a line: Acute toxicity in male Swiss albino mouse assessed as ataxia at 1200 mg/kg BW, po administered as single dose via gavage measured after 20 mins by up-and-down method. It counts as organism-based. Conditions: in vivo.
Data set [9] can be described thus: Acute toxicity in male Swiss albino mouse assessed as piloerection at 450 mg/kg BW, po administered as single dose via gavage measured after 1 hrs by up-and-down method. Type of data set: organism-based. As to conditions: in vivo.
Data set [10] is described as follows: Acute toxicity in male Swiss albino mouse assessed as survival time at 1200 mg/kg BW, po administered as single dose via gavage by up-and-down method. It counts as organism-based. As to conditions: in vivo.
Data set [11] can be described thus: Acute toxicity in male Swiss albino mouse assessed as survival time at 650 mg/kg BW, po administered as single dose via gavage by up-and-down method. Type of data set: organism-based. As to conditions: in vivo.
A short description of data set [12]: Acute toxicity in male Swiss albino mouse assessed as survival time at 250 mg/kg BW, po administered as single dose via gavage by up-and-down method. Type of data set: organism-based. Conditions: in vivo.
Data set [13] is described as follows: Acute toxicity in male Swiss albino mouse assessed as survival time at 50 mg/kg BW, po administered as single dose via gavage by up-and-down method. Type of data set: organism-based. As to conditions: in vivo.
Data set [14] is described as follows: Acute toxicity in male Swiss albino mouse assessed as mortality rate at 1200 mg/kg BW, po administered as single dose via gavage measured after 48 hrs by up-and-down method relative to control. Type of data set: organism-based. Conditions: in vivo.
The nature of data set [15]: Acute toxicity in male Swiss albino mouse assessed as mortality rate at 900 mg/kg BW, po administered as single dose via gavage measured after 48 hrs by up-and-down method relative to control. Type of data set: organism-based. As to conditions: in vivo.
A short description of data set [16]: Acute toxicity in male Swiss albino mouse assessed as mortality rate at 450 to 50 mg/kg BW, po administered as single dose via gavage measured after 48 hrs by up-and-down method relative to control. Type of data set: organism-based. As to conditions: in vivo, at 50 to 450 mg/kg, dose 450-50 mg/kg.
Data set [17] relates to Mus musculus. In words: Antioxidant activity against scopolamine-induced Albino mouse assessed as decrease in MDA level in brain at 5 mg/kg measured after 24 hrs. Type of data set: functional.
A short description of data set [18]: Lipophilicity, logP of compound. It counts as physicochemical. Conditions: octanol/water.
The subject of data set [19] is Mus musculus. In words: Antioxidant activity against scopolamine-induced Albino mouse assessed as increase in catalase activity in brain at 5 mg/kg measured after 24 hrs. Type of data set: functional, organism-based.

Molecules are shown by their SMILES. The source made the active and inactive calls. No cut-off for these calls is given here.

Sequence of Cholinesterase (P81908 whole entry): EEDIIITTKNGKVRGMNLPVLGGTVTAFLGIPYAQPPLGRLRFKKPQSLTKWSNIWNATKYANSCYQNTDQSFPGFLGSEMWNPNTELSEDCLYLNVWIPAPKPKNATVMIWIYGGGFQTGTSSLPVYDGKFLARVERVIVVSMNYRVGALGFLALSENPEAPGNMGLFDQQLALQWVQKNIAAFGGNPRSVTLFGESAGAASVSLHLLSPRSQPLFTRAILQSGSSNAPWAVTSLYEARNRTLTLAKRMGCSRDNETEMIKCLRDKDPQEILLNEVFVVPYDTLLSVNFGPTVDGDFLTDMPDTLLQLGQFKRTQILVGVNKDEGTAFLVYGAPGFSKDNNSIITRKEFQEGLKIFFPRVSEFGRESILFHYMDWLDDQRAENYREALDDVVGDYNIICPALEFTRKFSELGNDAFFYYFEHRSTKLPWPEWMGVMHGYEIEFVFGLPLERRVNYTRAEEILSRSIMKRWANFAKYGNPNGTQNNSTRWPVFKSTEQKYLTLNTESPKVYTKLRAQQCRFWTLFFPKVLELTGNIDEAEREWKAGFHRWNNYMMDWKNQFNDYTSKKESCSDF
Sequence of Beta-secretase 1 (P56817 whole entry): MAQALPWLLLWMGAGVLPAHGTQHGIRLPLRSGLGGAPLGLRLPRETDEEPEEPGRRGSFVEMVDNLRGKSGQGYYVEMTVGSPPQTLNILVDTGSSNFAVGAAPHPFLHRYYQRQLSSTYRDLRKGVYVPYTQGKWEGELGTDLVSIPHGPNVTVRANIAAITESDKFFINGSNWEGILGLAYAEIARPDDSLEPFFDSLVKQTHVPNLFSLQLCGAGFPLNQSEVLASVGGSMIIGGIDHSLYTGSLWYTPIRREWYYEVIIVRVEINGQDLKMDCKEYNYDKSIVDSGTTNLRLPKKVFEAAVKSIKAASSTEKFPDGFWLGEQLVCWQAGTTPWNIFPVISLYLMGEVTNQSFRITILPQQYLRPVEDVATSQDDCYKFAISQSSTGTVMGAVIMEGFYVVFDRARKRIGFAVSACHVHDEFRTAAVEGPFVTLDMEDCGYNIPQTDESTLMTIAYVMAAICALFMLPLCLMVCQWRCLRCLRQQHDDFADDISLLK
Sequence of Acetylcholinesterase (Electrophorus electricus) (O42275 24-633 limits assumed): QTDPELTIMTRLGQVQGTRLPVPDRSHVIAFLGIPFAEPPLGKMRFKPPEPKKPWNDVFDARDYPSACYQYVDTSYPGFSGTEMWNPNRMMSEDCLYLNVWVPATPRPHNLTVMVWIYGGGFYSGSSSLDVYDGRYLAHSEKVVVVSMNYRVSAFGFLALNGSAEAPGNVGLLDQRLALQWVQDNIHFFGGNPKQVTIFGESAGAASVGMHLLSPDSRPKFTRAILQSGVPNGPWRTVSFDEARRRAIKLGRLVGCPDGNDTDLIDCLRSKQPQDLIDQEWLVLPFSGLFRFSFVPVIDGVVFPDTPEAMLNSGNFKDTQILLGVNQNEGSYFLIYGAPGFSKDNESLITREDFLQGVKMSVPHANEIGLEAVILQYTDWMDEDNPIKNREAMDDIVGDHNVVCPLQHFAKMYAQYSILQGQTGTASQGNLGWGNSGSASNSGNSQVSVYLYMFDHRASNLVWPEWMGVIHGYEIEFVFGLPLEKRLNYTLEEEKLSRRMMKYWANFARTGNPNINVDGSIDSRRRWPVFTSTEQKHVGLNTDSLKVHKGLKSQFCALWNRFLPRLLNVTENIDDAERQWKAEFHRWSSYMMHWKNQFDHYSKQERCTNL

For `COc1cc(/C=C/C(=O)Nc2ccc3sc(NCN4C(=O)CSC4=O)nc3c2)ccc1O`, in data set [1] (po, 48 h), the LD100 came out at 1500 mg/kg. For the same molecule, in data set [1] (male, Swiss albino), the LD50 at 48 h worked out at 800 mg/kg. Further, the IC50 on Cholinesterase was 9810 nM; in data set [2], 24 nM; on Beta-secretase 1 it was 2420 nM; in data set [3], 180 nM. Moreover, in data set [4], the inhibition entry was “Active; Inhibition Of Free Enzyme And Enzyme-Substrate Complex”. Besides, the Activity in [5] is 76%; in [6], “Non-toxic”; in [7], “Toxic”; in data set [8], “Toxic”; in data set [9], “Toxic”; in the data set on Mus musculus [17], 1.95 nmol/mL. Further, the Time in data set [10] was 40 min; in data set [11] it was 18 h; in [12] it was > 48 h; in data set [13] it was > 48 h. In addition, the mortality at 48 h in [14] stood at 80%; in data set [15], 66.7%; in [16], 0%. Besides, in data set [18], the logP came out at 3.34. Further, in the data set on Mus musculus [19], the outcome was Active.

The values are drawn from ChEMBL document CHEMBL6103588, “Promising thiazolidinedione-thiazole based multi-target and neuroprotective hybrids for Alzheimer's disease: Design, synthesis, in-vitro, in-vivo and in-silico studies” (Eur J Med Chem, 2025).
